Measured values published in US10328062B2, “Biomarkers and use of MET inhibitor for treatment of cancer” (AMGEN, INC., priority 2014, dated 2019).

Tests used:
[1] = tested on: MKN-45; assay: 72 hour cancer cell line viability assay (CellTiter-Glo); type: cell-based; conditions: Homo sapiens
Protocol: (§1) Human cancer cell lines were purchased from ATCC, JCRB, Sigma Aldrich or DSMZ. All cell lines were propagated in growth media per the suppliers' recommendation and maintained in 5% CO2 and 37° C.
(§2) Cancer cell line viability assays were carried out using the CellTiter-Glo Luminescent Cell Viability Assay from Promega (Madison, Wis.). Optimal cell seeding densities were determined using time lapse imaging to maximize signal window and ensure cells were not contact growth inhibited at the 72 hour time point. Cells were seeded in 96 well plates in complete growth media and allowed to adhere to the bottom of the plate by incubation at 37° C. and 5% CO2 overnight. […] Plates were incubated at 37° C. and 5% CO2 for 72 hours. Treated plates were then allowed to equilibrate to room temperature along with, CellTiter-Glo substrate and buffer solution prior to use in the viability assay. CellTiter-Glo substrate vials were reconstituted in 10 mL of buffer solution and added to assay plates in 100 μL/well volumes. Plates were shaken for 2 minutes at 700 rotations per minute with an orbit diameter of 3 mm followed by room temperature incubation for 10 minutes. Plates were then read using an Envision plate reader on luminescent setting.
(§3) To calculate growth inhibition effects (0-200% scale), time zero vehicle treated wells (V0), were read at the time of compound addition for each cell line.
(§4) Threshold for high vs low MET copy number was set at aCGH log 2 ratio of 2.5. Focal nature of MET copy number increase was defined qualitatively using tiled aCGH results for chromosome 7.
(§5) Percent growth inhibition is reported on a 0-200% scale where 0% is equivalent to no effect (time 72 hour control), 100% is equivalent to stasis (time 0 hour control) and 200% is equivalent to complete cell death.

[2] = tested on: NCI-H1993; assay: as above; type: cell-based; conditions: Homo sapiens
Protocol: as §1, §2, §3, §4, §5

[3] = tested on: SNU-5; assay: as above; type: cell-based, Human
Protocol: as §1, §2, §3, §4, §5

[4] = tested on: SNU-620; assay: as above; type: cell-based, Human
Protocol: as §1, §2, §3, §4, §5

[5] = tested on: MKN-45 cells; assay: Immunoblot analysis of apoptotic markers; type: cell-based, Human; conditions: 30 nM, 24 hours
Protocol: (§6) Cells were seeded in 10 cm dishes at varying densities and allowed to adhere by incubating at 37° C. and 5% CO2 overnight. […] Cells were harvested in 250 μL lysis buffer containing protease and phosphatase inhibitors. For suspension cell lines, cells were pelleted prior to lysis buffer addition. Protein concentrations for individual lysates were measured using a BCA protein assay. 25 μg of protein lysate per sample was resolved on Life Technologies (Carlsbad, Calif.) NuPAGE Bis-Tris gels per manufacturer's. Samples were transferred to nitrocellulose membranes for Western blot analysis. Membranes were blocked in 5% milk prepared in TBST for 1 hour at room temperature. Total and phospho-specific antibodies for specified endpoints were used at 1:1000 dilutions in 5% milk/TBST (total) or 5% BSA/TBST (phospho). Membranes were incubated in the presence of appropriate primary antibody overnight at 4° C. Secondary anti-species-IgG HRP conjugated antibodies were diluted 1:5000 in 5% milk/TBST and incubated in the presence of membranes for 1 hour at room temperature. Membranes were exposed to Thermo Scientific (Waltham, Mass.) Super Signal PICO West ECL detection reagent per manufacturer's recommended protocol and exposed to film to document signal.
(§7) Antibodies detecting total and phospho-MET (Y1234/1235), phospho-Gab1 (Y627), total and phospho-AKT (S473), total and phospho-ERK (T202/Y204), cleaved caspase-3, and cleaved PARP were purchased from Cell Signaling Technologies (Beverly, Mass.). The total β-actin antibody was purchased from Thermo Scientific (Waltham, Mass.). Both secondary anti-rabbit and anti-mouse IgG-HRP conjugated antibodies were purchased from Thermo Scientific (Waltham, Mass.).
(§8) Flow cytometry cell cycle analysis of MET amplified gastric cancer cell line MKN-45 is represented in FIG. 6. […] BrdU labeling was performed during the final 2 hours of compound treatment. […] Cells were then analyzed by flow cytometry to document effects on the cell cycle. […] Subsequent lysates were analyzed by SDS-PAGE and immunoblot using antibodies detecting cleaved PARP, cleaved caspase-3 and β-actin.

[6] = tested on: SNU-5 cells; assay: Immunoblot analysis of apoptotic markers; type: cell-based, Human; conditions: 30 nM, 24 hours
Protocol: as §6, §7, §8

[7] = tested on: SNU-620 cells; assay: Immunoblot analysis of apoptotic markers; type: cell-based, Human; conditions: 30 nM, 24 hours
Protocol: as §6, §7, §8

[8] = tested on: human HCC cell lines; assay: HCC cell proliferation assay (CellTiter-Glo, 72 h); type: cell-based
Protocol: All human HCC cell lines were purchased from the American Type Culture Collection (ATCC), Japanese Collection of Research Bioresources (JCRB), Korean Cell line Bank (KCLB), Shanghai Institutes of Biological Sciences (SIBS), Zhongshan Hospital Fudan University (ZHFU), and routinely cultured in 96-well plates in ATCC's recommended growth media in the temperature of 37° C., 5% CO2 and 95% humidity. […] Luminescence was measured with a PerkinElmer EnVision® plate reader. Data will not be normalized to a control compound, rather POC (percent of control). POC=(compound treated signal/DMSO treated signal)*100. POC values were processed with the software of GraphPad Prism version 5 to calculate the absolute IC50. Time 0 (T0) reported as broken line on dose response curves were shown in the curve fitting as the percent of the net T3 DMSO control.
The fluorescence in situ hybridization (FISH) analysis and immunohistochemistry (IHC) staining were used to confirm c-MET amplification and high protein expression. The six sensitive and non-sensitive cell lines were selected, including MHCC97H, HCCLM3, JHH-4, JHH-5, SNU-398 and Hep3B. MHCC97H and HCCLM3 cell lines also had high levels of total MET with strong membrane staining (IHC 3+) and MET gene amplification (MET/CEP7>2.0), which were identified as Met-positive HCC. […]

Q: Which results are given for `COCCOc1cnc2ccn([C@H](C)c3nnc4c(F)cc(-c5cnn(C)c5)cn34)c(=O)c2c1` [Compound M, 6-{(1R)-1-[8-fluoro-6-(1-methyl-1H-pyrazol-4-yl)[1,2,4]triazolo[4,3-a]pyridin-3-yl]ethyl}-3-(2-methoxyethoxy)-1,6-naphthyridin-5(6H)-one]?
A: IC50 ([1]; MKN-45, Gastric, MET copy number High, focal Yes, 72 hour viability): 9 nM; Emax ([1]; MKN-45, 72 hour, 0-200% scale, 100% = stasis, read-out: maximum effect, growth inhibition): 100%; IC50 ([2]; NCI-H1993, NSCLC, MET copy number High, focal Yes, 72 hour viability): 17 nM; Emax ([2]; NCI-H1993, 72 hour, 0-200% scale, 100% = stasis, read-out: maximum effect, growth inhibition): 100%; IC50 ([3]; Homo sapiens, SNU-5, 72 h): 3 nM; viability response type ([3]; SNU-5, 72 hour, 0-200% growth inhibition scale): evidence of cell death; IC50 ([4]; Homo sapiens, SNU620, 72 h): 14 nM; viability response type ([4]; SNU-620, 72 hour, 0-200% growth inhibition scale): evidence of cell death; cleaved PARP and cleaved caspase-3 levels [5]: No induction of cleaved PARP or cleaved caspase-3; cleaved PARP and cleaved caspase-3 levels [6]: clear induction of both cleaved PARP and cleaved caspase-3; cleaved PARP and cleaved caspase-3 levels [7]: elevated cleaved PARP and cleaved caspase-3 levels; drug sensitivity ([8]; HCC cell lines with total c-MET IHC 2+, 1+ or 0): did not show dramatic drug sensitivity; response to Compound M ([8]; Met-positive HCC (MHCC97H, HCCLM3: IHC 3+, MET/CEP7>2.0)): significant and favorable response
